Laboratory results: patent publication US7138491B2, “Carboline-3-carboxylic acid modified related sequences of Ala-Arg-Pro-Ala-Lys, their synthesis and use as thromobolytic agent” (Guangzhou Bai Yun Shan Pharmaceutical Co., Ltd., priority 2003, dated 2006)
Marks after values point to notes of the source that are not given here. Ends that are not written are not given here.

Legend:
fibrin plate = assay: In vitro fibrinolytic lysis on fibrin plate (fibrinogen-agarose); type: biochemical, rabbit; conditions: dosage per well differs per compound (0.8-2.2 μg; UK 5 IU); n = 6; NS control 21.01 ± 9.26
Description: The plates were prepared by mixing equal volumes of 0.3% rabbit fibrinogen and 0.95% agarose solutions, both dissolved in 50 mM of barbital buffer (pH 7.8, contained 1.66 mM of CaCl2, 0.68 mM of MgCl2 and 93.96 mM of NaCl)^[6]. The fibrinogen-agarose mixture was coagulated with […] thrombin (100 IU: ml) in the plastic dishes (its diameter is 90 mm and the depth of the fibrin plate is 1 mm). After 30 min at 4° C. an adequate number of wells, 5 mm in diameter, were perforated. To determine fibrinolytic activity […] aliquots of the tested pseudopeptides were added to each well, the plate was incubated, and areas of lysis were quantified as described for the regular fibrin plates.

[1] = system: rabbit euglobulin fraction; assay: In vitro euglobulin clot lysis time (ECLT); type: biochemical; conditions: dosage differs per compound (1.3-6.7 μg; UK 5 IU); 96 well microtiter plate; n = 6; NS control 200.01 ± 15.26
Description: The rabbit euglobulin fraction was prepared according to the literature^[6]. Plasma diluted […] in distilled water was precipitated at pH 5.7 with acetic acid (0.25%). After 30 min at 4° C. the suspension was centrifuged at 2000 g for 15 min and the precipitate was resuspended to the initial plasma volume with 50 mM barbital buffer (pH 7.8, contained 1.66 mM of CaCl2, 0.68 mM of MgCl2 and 93.96 mM of NaCl). Euglobulin clot lysis time (ECLT) of the tested pseudopeptide was measured using a 96 well microtiter plate^[7] and the data are listed in Table 2.

thrombus = assay: In vivo thrombolytic activity, thrombus on steel helix in extracorporeal circulation; conditions: male Wistar rats; injected; dose differs per compound (3.1-8.2 mg/kg; UK 20000 IU); blood circulated 90 min; n = 10; NS control 12.31 ± 2.57
Description: Male Wistar rats weighing 200–300 g (purchased from Animal Center of Peking University) were anesthetized with pentobarbital sodium (80.0 mg/kg, ip). The right carotid artery and left vein jugular of the animals were separated. To the glass tube filled with artery blood (1.0 ml) from the right carotid artery of the animal a stainless steel filament helix (15 circles; L, 15 mm; D, 1.0 mm) was put immediately. After 15 minutes the helix with thrombus was carefully taken out and weighted exactly, which was put into the middle polyethylene tube. The polyethylene tube was full with heparin sodium (50 IU/ml of NS) and one end was inserted into the left jugular vein. Heparin sodium was injected via the other end of the polyethylene tube as the anticoagulant, following which the tested pseudopeptide was injected. The blood was circulated through the polyethylene tube for 90 min, after which the helix was taken out and weighted accurately.

| Substance | Effect of the pseudopeptides on fibrin plate, areas of lysis, x ± SD (fibrin plate) | Euglobulin clot lysis time, x ± SD [1] | The reduction of thrombolytic mass, x ± SD (thrombus) |
| --- | --- | --- | --- |
| 3S-(2-Ala-Arg-Pro)-1,2,3,4-tetrahydro-β-carboline-3-carboxylic acid [compound 28] | 21.21 ± 11.11 mm^2 | 213.23 ± 31.58 min | 13.23 ± 2.58 mg |
| 3S-(2-Gln-Arg-Pro-Ala-Lys)-1,2,3,4-tetrahydro-β-carboline-3-carboxylic acid (QRPAK; not fully specified (C-terminus)) [compound 24] | 133.89 ± 9.99^a mm^2 | 96.88 ± 29.21^1a min | 22.88 ± 9.21^1) mg |
| 3S-1,2,3,4-tetrahydro-β-carboline-3-carboxyl-Arg-Arg-Pro-Ala-Lys-OH (RRPAK-OH; not fully specified (N-terminus); printed as 3S-1,2,3,4-tetrahydro-β-carboline-3-carboxyl-Arg-Arg-Pro-Ala-Lys-OH) [compound 26] | 24.00 ± 12.01 mm^2 | 214.80 ± 32.96 min | 14.80 ± 2.96 mg |
| 3S-1,2,3,4-tetrahydro-β-carboline-3-carboxyl-Lys-Arg-Pro-Ala-Lys-OH (KRPAK-OH; not fully specified (N-terminus); printed as 3S-1,2,3,4-tetrahydro-β-carboline-3-carboxyl-Lys-Arg-Pro-Ala-Lys-OH) [compound 13] | 24.01 ± 10.05 mm^2 | 214.11 ± 32.67 min | 14.11 ± 2.67 mg |
| 3S-(2-Asn-Arg-Pro-Ala-Lys)-1,2,3,4-tetrahydro-β-carboline-3-carboxylic acid (NRPAK; not fully specified (C-terminus)) [compound 25] | 20.84 ± 10.77 mm^2 | 217.27 ± 30.57 min | 17.27 ± 3.57^2) mg |
| 3S-1,2,3,4-tetrahydro-β-carboline-3-carboxyl-Ala-Arg-Pro-Ala-Lys-OH (ARPAK-OH; not fully specified (N-terminus); printed as 3S-1,2,3,4-tetrahydro-β-carboline-3-carboxyl-Ala-Arg-Pro-Ala-Lys-OH) [compound 11] | 24.10 ± 10.16 mm^2 | 204.01 ± 32.61 min | 14.01 ± 2.61 mg |
| H-Ala-Arg-Pro-OH [compound 9] | 23.16 ± 9.05 mm^2 | 203.81 ± 29.50 min | 13.81 ± 2.50 mg |
| 3S-1,2,3,4-tetrahydro-β-carboline-3-carboxyl-Ala-Arg-Pro-OH [compound 18] | 23.88 ± 10.04 mm^2 | 203.66 ± 30.44 min | 13.66 ± 2.44 mg |
